What was measured:
HepG2 cells [1] = test: Cytotoxicity in HepG2 cells; format: cell-based, human; settings: data not shown
FAO cells [2] = test: Cholesterol synthesis rate in FAO cells (deuterium enrichment, GC/MS); format: cell-based, rat; settings: 20 μM, 12 hours, 100 nM insulin
Description: (§1) HepG2 and FAO cells as well as primary rat hepatocytes were cultured at 37° C. and 5% CO2 in Dulbecco's modified Eagle's medium (DMEM; Sigma, St. Louis, Mo.), supplemented with […] of penicillin-streptomycin (P/S, GIBCO-BRL), 10% fetal bovine serum (FBS, Hyclone) and 20 mM glutamine. Primary rat hepatocytes were isolated using a method as described previously (20), and plated onto collagen-coated 6-cm dishes (3×10^6 cell/dish) in DMEM containing 10% FBS; […] P/S, 20 mM glutamine, 100 nM insulin and 1 μM dexamethasone. After 4 hours of culture, non-adherent cells were washed away with 1×PBS. The remaining hepatocytes were cultured or treated in regular DMEM medium. Fatty acids and cholesterol synthesis rate was, determined using the deuterium enrichment method followed by GC/MS analysis. Briefly, cells were cultured in regular DMEM medium containing 10% 2H2O for 18 hours. Fatty acids and cholesterol were purified by extraction with organic solvents chloroform/methanol and quantitatively measured by GC/MS. The synthesis rates were presented as the percentage of ^2H-containing palmitate or cholesterol in total amount of palmitate or cholesterol.

293 cells = test: Cytotoxicity in 293 cells; format: cell-based; settings: 0.1 mM BF-102; data not shown
[3] = Toxic responses in mice under standard chow, osmotic pumps; format: in vivo; settings: one week, total of 0.6 mg/g body weight by osmotic pumps
HMGCR mRNA = test: Hepatic HMGCR mRNA in HFD-fed mice by qRT-PCR; format: in vivo, C57BL/6J mice; settings: 0.3 mg/g body weight, 1 week, osmotic pumps
Description: (§2) Male C57BI/6J mice were purchased from The Jackson Laboratory at 8 weeks of age and were rendered insulin resistant by feeding an HFD (60% kcal from fat; D12492, Research Diets) for 4 weeks. Then the treatment with BF-102 or BF175 was performed for 1 week (osmotic pumps) or several weeks (in HFD).
(§3) Total RNA was extracted from cells with Trizol (Invitrogen, Life Technologies, Carlsbad, Calif.) and quantified with an Agilent 2100 Bioanalyzer. For mRNA quantification, 2 μg of RNA was converted to cDNA with a High Capacity cDNA Reverse. Transcription kit (Applied Biosystems, Foster City, Calif.), and transcript levels of relevant genes were determined by real-time, quantitative PCR with an ABI 7300 Real Time PCR machine according to the manufacturer's instructions. (PCR primer information is available upon request)

HepG2 cells [4] = test: Cholesterol synthesis in HepG2 cells (deuterated water GC/MS); format: cell-based, human; settings: 20 μM, 12 hours
Description: (§4) Quantitative measurement of fatty acids and cholesterol synthesis Fatty acids and cholesterol synthesis rate was determined using the deuterated water—GC/MS method as described previously.

FAO cells [5] = test: Palmitate synthesis rate in FAO cells (deuterium enrichment, GC/MS); format: cell-based, rat; settings: 20 μM, 12 hours, 100 nM insulin
Description: as §1

[6] = tested on: fatty acid synthase (FAS) mRNA; test: FAS mRNA levels in HepG2 cells by quantitative RT-PCR; format: cell-based, human; settings: 30 μM (0.03 mM) compound, 6 hours, qRT-PCR
Description: (§5) HepG2, HEK293 cells, and MEFs were cultured at 37° C. and 5% CO2 in Dulbecco's modified Eagle's medium (DMEM; Sigma), supplemented with […] of penicillin-streptomycin (GIBCO-BRL), 10% (or otherwise indicated) fetal bovine serum (Hyclone), and 20 mM Glutamine.
(§6) Total RNA was extracted from cells with Trizol (Invitrogen, Carlsbad, Calif.) and quantified with an Agilent 2100 Bioanalyzer (Agilent Technologies, Santa Clara, Calif.). For mRNA quantification, 2 ug of RNA was converted to cDNA with a High Capacity cDNA Reverse Transcription kit (Applied Biosystems, Foster City, Calif.), and transcript levels of relevant genes were determined by real-time, quantitative PCR with an ABI 7300 Real Time PCR machine according to the manufacturers instructions.
(§7) HepG2 and FAO cells as well as primary rat hepatocytes were cultured at 37° C. and 5% CO2 in Dulbecco's modified Eagle's medium (DMEM; Sigma, St. Louis, Mo.), supplemented with […] of penicillin-streptomycin (P/S, GIBCO-BRL), 10% fetal bovine serum (FBS, Hyclone) and 20 mM glutamine. Primary rat hepatocytes were isolated using a method as described previously (20), and plated onto collagen-coated 6-cm dishes (3×10^6 cell/dish) in DMEM containing 10% FBS; […] P/S, 20 mM glutamine, 100 nM insulin and 1 μM dexamethasone. After 4 hours of culture, non-adherent cells were washed away with 1×PBS. The remaining hepatocytes were cultured or treated in regular DMEM medium.
as §3

FAS mRNA = test: Hepatic FAS mRNA in HFD-fed mice by qRT-PCR; format: in vivo, C57BL/6J mice; settings: 0.3 mg/g body weight, 1 week, osmotic pumps
Description: as §2, §3

HepG2 cells [7] = test: Palmitate synthesis in HepG2 cells (deuterated water GC/MS); format: cell-based, human; settings: HepG2 cells as printed
Description: as §4

[8] = tested on: HMG-CoA reductase (HMGCR) mRNA; test: HMG-CoA reductase mRNA levels in HepG2 cells by quantitative RT-PCR; format: cell-based, human; settings: 6 hours; for HMG-CoA reductase mRNA levels: 0.03 mM compound
Description: as §5, §6, §7, §3

| SMILES | cytotoxicity in HepG2 cells (HepG2 cells [1]; 0.1 mM BF-102) | toxicity to HepG2 cells (HepG2 cells [1]; at the doses used) | synthesis rate of cholesterol (FAO cells [2]) | cytotoxicity in 293 cells (293 cells) | toxic responses [3] | reduction of hepatic mRNA levels of HMGCR vs DMSO controls (HMGCR mRNA) | cholesterol synthesis (HepG2 cells [4]) | synthesis rate of palmitate (FAO cells [5]) | FAS mRNA levels [6] | FAS mRNA levels ([6]; listed as BF-02) | hepatic FAS mRNA levels (FAS mRNA) | palmitate synthesis (HepG2 cells [7]) | HMG-CoA reductase mRNA levels [8] | mRNA levels of HMGCR, dose dependence ([8]; indicated concentrations) |
| --- | --- | --- | --- | --- | --- | --- | --- | --- | --- | --- | --- | --- | --- | --- |
| CC1(C)OB(c2ccc(C=Cc3ccc(O)cc3)cc2)OC1(C)C [BF-102, 4-{2-[4-(4,4,5,5-Tetramethyl-[1,3,2]dioxaborolan-2-yl)-phenyl]-vinyl}-phenol] | no significant cytotoxicity | not toxic | dramatically decrease | no significant cytotoxicity | no apparent toxic responses | ~5 fold | inhibits | significantly decrease | strong inhibition | significant decrease | significantly down regulated | inhibits | strong inhibition | dose-dependently decrease |
| CC1(C)OB(c2ccc(C=Cc3cc(Cl)cc(Cl)c3)cc2)OC1(C)C [MD131, 3,5-dichloro-4/-(4,4,5,5-Tetramethyl-1,3,2-dioxaborolan-2-yl)stilbene] |  |  |  |  |  |  |  |  | strong inhibition |  |  |  | strong inhibition |  |

Source: patent US20140051661A1, “NOVEL LIPOGENIC INHIBITORS AND USES THEREOF” (The Texas A&M University System, priority 2011, published 2014)
